Patent publication US7745375B2, “Synergistic insecticide mixtures” (Bayer CropScience AG, priority 2003, dated 2010)

Legend:
Type in all cases: in vivo
Myzus persicae [1] = assay: Example D Myzus persicae test (cabbage leaves dipped); conditions: single active compound, 0.8 ppm
Protocol: (§1) To prepare a suitable active compound preparation, 1 part by weight of active compound is mixed with the stated amounts of solvent and emulsifier, and the concentrate is diluted with emulsifier-comprising water to the desired concentration.
(§2) Cabbage leaves (Brassica oleracea) which are severely infested with green peach aphids (Myzus persicae) are treated by being dipped into the active compound preparation of the desired concentration.
(§3) After the desired period of time, the destruction is determined in %. In this context, 100% means that all of the aphids were destroyed; 0% means that no aphids were destroyed.

Spodoptera exigua [2] = assay: Example N Spodoptera exigua test (cabbage leaves dipped); conditions: single active compound, 20 ppm
Protocol: as §1
(§4) Cabbage leaves (Brassica oleracea) are treated by being dipped into the active compound preparation of the desired concentration and populated with army worm caterpillars (Spodoptera exigua) while the leaves are still moist.
(§5) After the desired period of time, the destruction is determined in %. In this context, 100% means that all of the caterpillars were destroyed; 0% means that no caterpillars were destroyed.

Bemisia tabaci [3] = assay: Example B Bemisia tabaci test (cotton plants sprayed); conditions: single active compound, 0.8 ppm
Protocol: as §1
(§6) Cotton plants (Gossypium hirsutum) which are infested with whitefly (Bemisia tabaci) eggs, larvae and puparia are sprayed with the active compound preparation of the desired concentration.
(§7) After the desired period of time, the destruction is determined in %. In this context, 100% means that all of the whiteflies were destroyed; 0% means that no whiteflies were destroyed.

[4] = test system: Plutella xylostella (normal strain); assay: Example E Plutella xylostella test (normal strain); conditions: single active compound, 20 ppm
Protocol: as §1
Cabbage leaves (Brassica oleracea) are treated by being dipped into the active compound preparation of the desired concentration and populated with diamondback moth caterpillars (Plutella xylostella/sensitive strain) while the leaves are still moist.
as §5

Bemisia tabaci [5] = assay: Example K Bemisia tabaci test (cotton plants sprayed); conditions: single active compound, 0.16 ppm
Protocol: as §1, §6, §7

Heliothis armigera [6] = assay: Example C Heliothis armigera test (soya bean shoots dipped); conditions: single active compound, 4 ppm
Protocol: as §1
Soya bean shoots (Glycine max) are treated by being dipped into the active compound preparation of the desired concentration and populated with Heliothis armigera caterpillars while the leaves are still damp.
as §5

Heliothis armigera [7] = assay: Example L Heliothis armigera test (soya bean shoots dipped); conditions: single active compound, 4 ppm
Protocol: as §1
Soya bean shoots (Glycine max) are treated by being dipped into the active compound preparation of the desired concentration and populated with Heliothis armigera caterpillars while the leaves are still moist.
as §5

Myzus persicae [8] = assay: Example M Myzus persicae test (cabbage leaves dipped); conditions: single active compound, 0.16 ppm
Protocol: as §1, §2, §3

Aphis gossypii = assay: Example A Aphis gossypii test (cotton leaves dipped); conditions: single active compound, 0.8 ppm
Protocol: as §1
Cotton leaves (Gossypium hirsutum) which are severely infested with cotton aphids (Aphis gossypii) are treated by being dipped into the active compound preparation of the desired concentration.
as §3

Myzus persicae [9] = assay: Example G Myzus test (cabbage leaves dipped); conditions: single active compound, 0.16 ppm
Protocol: as §1, §2, §3

Spodoptera exigua [10] = assay: Example I Spodoptera exigua test (cabbage leaves dipped); conditions: single active compound, 100 ppm
Protocol: as §1, §4, §5

Spodoptera frugiperda = assay: Example J Spodoptera frugiperda test (cabbage leaves dipped); conditions: single active compound, 0.8 ppm
Protocol: as §1
Cabbage leaves (Brassica oleracea) are treated by being dipped into the active compound preparation of the desired concentration and populated with army worm caterpillars (Spodoptera frugiperda) while the leaves are still moist.
as §5

Heliothis armigera [11] = assay: Example F Heliothis armigera test (soya bean shoots dipped); conditions: single active compound
Protocol: as §1
Soya bean shoots (glycine max) are treated by being dipped into the active compound preparation of the desired concentration and populated with Heliothis armigera caterpillars while the leaves are still moist.
as §5

[12] = test system: Plutella xylostella/normal strain; assay: Example H Plutella test (normal strain); conditions: single active compound
Protocol: as §1
Cabbage leaves (Brassica oleracea) are treated by being dipped into the active compound preparation of the desired concentration and populated with diamondback moth caterpillars (Plutella xylostella/normal strain) while the leaves are still moist.
as §5

Row | Structure (SMILES) | Destruction in % after 6 d (Myzus persicae [1]) [%] | Destruction in % after 6 d (Spodoptera exigua [2]) [%] | Destruction in % after 12 d (Bemisia tabaci [3]) [%] | Destruction in % after 6 d [4] [%] | Destruction in % after 10 d (Bemisia tabaci [5]) [%] | Destruction in % after 6 d (Heliothis armigera [6]) [%] | Destruction in % after 6 d (Heliothis armigera [7]) [%] | Destruction in % after 6 d (Myzus persicae [8]) [%] | Destruction in % after 6 d (Aphis gossypii) [%] | Destruction in % after 6 d (Myzus persicae [9]) [%] | Destruction in % after 7 d (Spodoptera exigua [10]) [%] | Destruction in % after 7 d (Spodoptera frugiperda) [%] | Destruction in % after 7 d (Heliothis armigera [11]; 4 ppm) [%] | Destruction in % after 7 d ([12]; 20 ppm) [%] | Destruction in % after 7 d (Heliothis armigera [11]; 0.8 ppm) [%] | Destruction in % after 7 d ([12]; 4 ppm) [%]
1 | CN/C(=N\[N+](=O)[O-])NCc1cnc(Cl)s1 [Clothianidin, clothianidin] | 65 | 10 | 35 | 60 | 5 | 45 | 0 | 0 | 0 |  |  |  |  |  |  | 
2 | O=[N+]([O-])/N=C1\NCCN1Cc1ccc(Cl)nc1 [Imidacloprid, imidacloprid] |  | 10 |  |  | 5 |  | 10 | 50 |  | 10 | 45 | 20 | 10 | 15 |  | 
3 | N#C/N=C1\SCCN1Cc1ccc(Cl)nc1 [Thiacloprid, thiacloprid] | 20 |  | 80 | 15 |  | 35 |  |  | 25 | 10 | 0 | 10 |  |  | 0 | 0
